Tests used:
Format in all cases: physicochemical, human
[1] = LC/MS of blood plasma sample: time from blood collection to centrifugation (Table D); details: for Increase or decrease: detection intensity; for Increase or decrease / Rate of increase or decrease: blood collection to centrifugation; for Rate of increase or decrease: detection intensity relative to 1 at 15 minutes
In short: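 Detection intensities are expressed relative to samples centrifuged 15 min after collection (=1), measured by electrospray LC/MS in MRM mode (Discovery HS F5-3, 40 °C, formic acid water/acetonitrile gradient at 0.25 mL/min). EDTA blood from a healthy donor was held at 4 °C, centrifuged at 4 °C, 3000 rpm, 15 min, and plasma frozen.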

[2] = LC/MS of serum sample: number of times of freezing and thawing (Table M); design: key to Rate of increase or decrease: detection intensity relative to 1 at 2 freeze-thaw cycles; details: for Number of times when compound is affected / Increase or decrease: serum sample, LC/MS; for Number of times when compound is affected: detection intensity changed by 30% or more vs 2 times of freezing and thawing; for Increase or decrease: detection intensity vs 2 times of freezing and thawing
In short: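 Values are detection intensities relative to serum thawed twice, versus 4, 6 or 10 freeze-thaw cycles. Serum came from blood spun at room temperature, 3500 rpm for 5 minutes. Analysis: electrospray LC/MS in MRM mode, Discovery HS F5-3 column, 40° C, 0.1% formic acid in water and acetonitrile.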

[3] = LC/MS of blood plasma sample: number of times of freezing and thawing (Table F); details: for Rate of increase or decrease: detection intensity relative to 1 at 2 times; for Increase or decrease: detection intensity
In short: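 Values are detection intensities normalised to 1 for plasma thawed twice, compared against 4, 6 and 10 freeze-thaw cycles. Measured by electrospray LC/MS in MRM mode, formic acid water/acetonitrile mobile phase, column at 40° C. Plasma came from EDTA blood, cooled to 4° C and spun at 3000 rpm for 15 min.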

[4] = LC/MS of blood plasma sample: time from blood collection to cooling of blood (Table E); design: key to Rate of increase or decrease / Rate of increase or decrease (first value, increase): detection intensity relative to ≤1 min to cooling = 1; details: for Rate of increase or decrease: detection intensity relative to 1 at 1 minute or less, blood collection to cooling 5 minutes; for Increase or decrease: detection intensity, blood collection to cooling 5 minutes or more vs 1 minute or less
[5] = LC/MS of serum sample: time from blood collection to centrifugation (Table J); details: for Increase or decrease / Time when compound is affected: serum sample, LC/MS; for Increase or decrease: detection intensity vs 15 minutes from blood collection to centrifugation; for Time when compound is affected: time from blood collection to centrifugation, detection intensity changed by 30% or more vs 15 minutes
In short: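 Detection intensities are expressed relative to 1 for samples centrifuged 15 min after blood collection; centrifugation was at room temperature, 3500 rpm, 5 min. Frozen serum was run by electrospray LC-MS in MRM mode, with 0.1% formic acid water/acetonitrile at 0.25 mL/min on a 40 °C F5 column.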

[6] = GC/MS of blood plasma sample: time from blood collection to cooling of blood (Table B); design: key to Rate of increase or decrease / Rate of increase or decrease (first value, increase): detection intensity relative to 1 at cooling time ≤1 min; details: for Increase or decrease: detection intensity, blood collection to cooling 5 minutes or more vs 1 minute or less; for Rate of increase or decrease: detection intensity relative to 1 at 1 minute or less, blood collection to cooling 5 minutes
In short: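 Blood drawn at room temperature into EDTA tubes, mixed, then cooled at 4° C. within 1 minute or less versus 5 minutes or more before centrifugation (4° C., 3000 rpm, 15 minutes). Plasma was frozen, methoxymated and trimethylsilylated, and analysed by EI GC/MS in MRM mode. Values are detection intensity relative to the ≤1 minute condition.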

[7] = GC/MS of blood plasma sample: time from blood collection to centrifugation (Table A); details: for Rate of increase or decrease: detection intensity relative to 1 at 15 minutes; for Rate of increase or decrease / Increase or decrease: blood collection to centrifugation; for Increase or decrease: detection intensity, after 4 hours vs 15 minutes
In short: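 Read-out is MRM detection intensity by electron-ionization GC/MS on a BPX5 column after methoxymation and trimethylsilylation, expressed relative to a 15-minute collection-to-centrifugation interval. Plasma was prepared from EDTA blood held at 4° C and spun at 4° C, 3000 rpm for 15 minutes, then frozen.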

[8] = different from individual to individual, individuals with decrease, relative to 1 at 15 minutes, collection to centrifugation, after 4 hours
[9] = different from individual to individual, individuals with increase, relative to 1 at 15 minutes, collection to centrifugation, after 4 hours
[10] = 4 times of freezing and thawing, relative to 1 at 2 times, different from individual to individual, first value (increase)
[11] = 4 times of freezing and thawing, relative to 1 at 2 times, different from individual to individual, second value (decrease)
[12] = after 4 hours from blood collection to centrifugation, detection intensity relative to 1 at 15 minutes
[13] = different from individual to individual, individuals with decrease, relative to 1 at 1 minute or less, collection to cooling 5 minutes
[14] = different from individual to individual, individuals with increase, relative to 1 at 1 minute or less, collection to cooling 5 minutes
[15] = freezing and thawing 4 times vs 2 times

Compound	Increase or decrease ([1]; after 4 hours vs 15 minutes)	Rate of increase or decrease [2, 10]	Rate of increase or decrease [2, 11]	Number of times when compound is affected [2] [times]	Increase or decrease [2]	Rate of increase or decrease [4]	Increase or decrease [4]	Rate of increase or decrease [5, 12]	Increase or decrease [5]	Time when compound is affected [5]	Increase or decrease [6]	Rate of increase or decrease ([3]; freezing and thawing 4 times)	Increase or decrease [3, 15]	Rate of increase or decrease ([7]; after 4 hours)	Increase or decrease [7]	Increase or decrease ([1]; after 6 hours vs 15 minutes)	Rate of increase or decrease [6]	also measured
O=c1[nH]cnc2nc[nH]c12 [Hypoxanthine]	Different from individual	1.35	0.61	4	Different from individual	7.92	Increase	2.24	Increase	After 4 hours								Rate of increase or decrease (second value, decrease) [1, 8]: 0.70; Rate of increase or decrease (first value, increase) [1, 9]: 3.84; Rate of increase or decrease ([3]; freezing and thawing 6 times): 2.04; Increase or decrease ([3]; freezing and thawing 6 times vs 2 times): Increase
NC(=O)NC1NC(=O)NC1=O (stereo not shown) [Allantoin]	Decrease			4	Increase		Different from individual		Different from individual	After 4 hours	Different from individual	0.55	Decrease	0.18	Decrease			Rate of increase or decrease ([1]; after 4 hours): 0.52; Rate of increase or decrease ([2]; 4 times of freezing and thawing, detection intensity relative to 1 at 2 times): 3.27; Rate of increase or decrease (second value, decrease) [6, 13]: 0.57; Rate of increase or decrease (first value, increase) [6, 14]: 1.30; Rate of increase or decrease (second value, decrease) [4, 13]: 0.40; Rate of increase or decrease (first value, increase) [4, 14]: 1.57; Rate of increase or decrease ([5]; after 4 hours, relative to 1 at 15 minutes, different from individual to individual, first value (increase)): 1.78; Rate of increase or decrease ([5]; after 4 hours, relative to 1 at 15 minutes, different from individual to individual, second value (decrease)): 0.40
CC(C)(CO)[C@@H](O)C(=O)NCCC(=O)O [Pantothenic acid]				10	Decrease				Increase	After 12 hours	Increase			3.15	Increase	Increase	3.56	Rate of increase or decrease ([2]; 10 times of freezing and thawing, detection intensity relative to 1 at 2 times): 0.55; Rate of increase or decrease ([3]; freezing and thawing 10 times): 1.43; Increase or decrease ([3]; freezing and thawing 10 times vs 2 times): Increase; Rate of increase or decrease ([5]; after 12 hours from blood collection to centrifugation, detection intensity relative to 1 at 15 minutes): 1.43
O=c1[nH]c(=O)c2[nH]cnc2[nH]1 [Xanthine]		1.37	0.70	4	Different from individual	1.47	Increase	1.92	Increase	After 4 hours	Decrease	1.77	Increase		Different from individual	Increase	0.45	Rate of increase or decrease ([1]; after 6 hours): 1.39; Rate of increase or decrease (second value, decrease) [7, 8]: 0.49; Rate of increase or decrease (first value, increase) [7, 9]: 1.83

Reference: patent US20220146526A1, “METHOD FOR EVALUATING SAMPLE, ANALYSIS METHOD, METHOD FOR DETECTING DEGRADED SAMPLE, MARKER FOR DETECTING DEGRADED BLOOD PLASMA SAMPLE, AND MARKER FOR DETECTING DEGRADED SERUM SAMPLE” (SHIMADZU CORPORATION, priority 2019, published 2022)
